{"source": "paper PMC9296036", "about": "“A peptide interfering with the dimerization of oncogenic KITENIN protein and its stability suppresses colorectal tumour progression” (Clinical and Translational Medicine, 2022)", "test_system": "CT-26/EV tumours", "assay": "Syngeneic subcutaneous tumour model, CT-26/EV cells in BALB/c mice", "assay_type": "in vivo, mouse", "settings": "CT-26/EV (no forced KITENIN overexpression), KDIP 1 mg/kg intravenously alternate days for 14 days", "method": "The CT‐26 cell/syngeneic mouse model was used to investigate the in vivo effects of KDIP on colorectal tumourigenesis, as it is reported that a syngeneic mouse tumour model is good for testing the anticancer effects of candidate substances.[25], [26] Male Balb/c mice (5‐week old) were purchased from DaMul Science, Korea and acclimated for 1 week prior to subcutaneous injection of syngeneic CT‐26/EV (3 × 10^6) or CT‐26/KITENIN cells (1 × 10^6) into the dorsum. Tumour volume was calculated using the following equation: V = 1/2 × a × b […], where a and b are the longest and shortest diameters of the tumour (in millimetres), respectively. Tumour volume was measured every other day for 14 days to verify the effects of KDIP. All mice were sacrificed after Day 30 (Figure 7B), and the subcutaneous tumour grafts were surgically excised and weighed.\nFor the experimental tumour model, CT‐26/EV or CT‐26/KITENIN‐V5 cells were injected into the right back of BALB/c mice to form tumours, and KDIP was injected intravenously according to the timeline shown in Figure 7B. Considering the suppressive effect of KDIP on the cell invasion of CT‐26 cells, the initial test dosage was set to 1 mg/kg, which is equivalent to the half‐maximal inhibitory concentration (IC50) of KDIP on cell invasion. […] After 2 weeks of treatment, the mice were sacrificed and the tumours were analysed. […]", "note": "Entries after “also recorded” stand apart in the source; their conditions may differ. Ends that are not written are not given here."}
{"sequence": "YARVRRRGPRRWRLVSDEAV [KDIP]", "values": [{"measurement": "tumour growth (in words)", "value": "little effect on tumor growth; also recorded: little effect on tumour growth"}]}
